Assay results taken from paper PMC5459853, “Cathepsin S inhibition combines control of systemic and peripheral pathomechanisms of autoimmune tissue injury” (Scientific Reports, 2017).
Entries after “also recorded” stand apart in the source; their conditions may differ.

Columns and labels:
MRL-(Fas)lpr mice [1] = experiment: Experimental lupus nephritis, late onset of treatment week 15 to 19; format: in vivo; conditions: late onset week 15-19
Method: To further assess the potency of Cat-S inhibition to control advanced lupus nephritis we performed identical experiments with the highest dose of RO5459072 and MMF, which were not initiated before week 15 of age and continued for only 4 weeks and terminated again at week 19.
(§1) Four-week-old female MRL-(Fas)lpr mice were purchased from Harlan Winkelmann (Borchen, Germany) and kept under pathogen-free conditions in a 12 hour light and dark cycle with free access to food and water. All animal experiments were performed in accordance with the European protection laws of animal welfare, and with approval by the local government authorities Regierung von Oberbayern (reference number: 55.2.1-54-2532.2-11-12). At 11 or 15 weeks of age only mice with proteinuria (Albustix, Bayer AG, Leverkusen, Germany) were randomized into five different groups (n = 10) receiving different medicated diets: Three groups were fed with chow mixed with either 3, 10 or 30 mg/kg/day RO5459072, another group’s chow was mixed with 100 mg/kg/day mycophenolate mofetil (MMF), and one group received a standard diet (vehicle). The dose of MMF was chosen according to several studies reporting strong efficacy on SLE and lupus nephritis in MRL-(Fas)lpr mice[24]–[26]. […] At the age of 19 weeks all mice were sacrificed by cervical dislocation. Blood and urine samples were collected at different time points as indicated. In other experiments 7 week old female MRL-(Fas)lpr mice were randomized into three groups (n = 3) to receive a single intravenous injection of 10 µg sterile recombinant Cat-S and one group receiving vehicle (100 µl sterile PBS). One of the Cat-S groups was pretreated with 30 mg/kg/day RO5459072 starting one week prior to Cat-S injection; another group was pretreated with a total of four daily intra-peritoneal injections of the PAR-2 inhibitor GB83 (10 mg/kg).
Kidney tissue samples were collected from all mice and fixed overnight in 4% buffered formalin. Subsequently the fixed tissue samples were embedded in paraffin and cut into 4 µm thick serial sections. Kidney paraffin sections were stained with periodic acid-Schiff (PAS) reaction using standardized protocols as described. Scoring of lupus nephritis activity and chronicity indices was performed according to human lupus nephritis, [43]. Methenamine silver staining was performed on paraffin embedded kidney sections and semiquantitatively scored form 0–3 by a blinded observer. For immunostaining the following primary antibodies were used: anti-mouse CD3 (Abcam, Cambridge, UK), complement C3c (Biobyt Ltd, Cambridge, UK), CD31 (Dianova GmbH, Hamburg, Germany), WT1 (Santa Cruz Biotechnology, Dallas, Texas) and nephrin (Acris Antibodies, San Diego, CA). The immunostaining for C3c and CD31 were analyzed using the ImageJ software by measuring positively stained area and dividing it by the total area of the glomerulus and reported as percentage of +ve area. Sections stained for WT1/nephrin and CD3 were evaluated by counting positive cells per glomerulus. All the morphometric analysis were carried out in a blinded fashion.
(§2) Urinary albumin/creatinine ratios were determined using the Mouse Albumin ELISA Quantitation set (Bethyl Laboratories, Montgomery, TX) and the Creatinine FS kit (DiaSys Diagnostic Systems, Holzheim, Germany)[44]. BUN levels were determined in plasma samples using a Urea FS kit (DiaSys Diagnostic Systems). Mouse IgM, IgG and its isotypes IgG1, IgG2a and IgG2b plasma levels were measured using ELISA Sets (Bethyl Laboratories) at a plasma dilution of 1:1,000 to 1:100,000. Double-stranded DNA IgG and IgM antibodies were quantified as described. Briefly, 96 well Nunc-Immuno plates (Thermo Fisher Scientific, Roskilde, Denmark) were coated with poly-L-lysine (1:1 diluted with PBS) and incubated for two hours. After washing the plates, the plates were coated with 1 µg/ml mouse tail dsDNA sparing the wells for standards, which were coated with anti-mIgG and anti-mIgM (Bethyl Laboratories). […]

MRL-(Fas)lpr mice [2] = experiment: Intravenous recombinant Cat-S injection: albuminuria and glomerular ultrastructure (TEM); format: in vivo; conditions: 10 µg recombinant Cat-S i.v.
Method: as §1
as §2, with “[…] Absorbance was measured at 450 nm using a Tecan Microplate Reader (Biotek, Winnoski, VT). Indirect immunofluorescence was used to quantify ANA in” for “After washing the plates, the plates were coated with 1 µg/ml”, “plasma.” for “tail dsDNA sparing the wells for standards, which were coated with anti-mIgG and anti-mIgM (Bethyl Laboratories).”
Mouse kidney tissue was fixed in 2% paraformaldehyde/2% glutaraldehyde and 0.1M sodium phosphate buffer (pH 7.4) for 24 hours and processed as described. Samples were analyzed with a 1200EX electron microscope (JEOL, Tokyo, Japan).

With `Cn1cc(-c2ccc(S(=O)(=O)[C@@H]3C[C@@H](C(=O)NC4(C#N)CC4)N(C(=O)C4(C(F)(F)F)CC4)C3)c(C(F)(F)F)c2)cn1` [RO5459072] the “lupus nephritis disease activity index” value (MRL-(Fas)lpr mice [1]) was “significantly reduced”, the “lupus nephritis disease chronicity index” value (MRL-(Fas)lpr mice [1]) was “failed to significantly suppress” and the “proteinuria and BUN at week 19 compared to control mice” value (MRL-(Fas)lpr mice [1]) was “significantly reduced”. For the same compound, the “plasma IgG and its isotypes and anti-dsDNA IgG” value (MRL-(Fas)lpr mice [1]; highest dose of RO5459072, MMF) was “significantly suppressed”, the Cat-S-induced albuminuria (MRL-(Fas)lpr mice [2]; 30 min, RO5459072 30 mg/kg/day pretreatment, GB83 10 mg/kg i.p.) was “completely prevented; also recorded: entirely blocked” and the “Cat-S-induced glomerular endothelial cell injury (TEM)” value (MRL-(Fas)lpr mice [2]; 24 h) was “completely prevented”.
